From PubChem BioAssay AID330 (DTP/NCI, 2004)
Where “and” joins values, the source holds several entries; their conditions need not be identical. Equal entries are not always repeated. Inconclusive results and toxic doses are left out.

System: P388 leukemia ip, CD2F1 mice, survival T/C
Assay: NCI In Vivo Anticancer Drug Screen. Data for tumor model P388 Leukemia (intraperitoneal) in CD2F1 (CDF1) mice
Conditions: endpoint: median survival time, higher = longer survival
Procedure, shortened: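 Mice carrying the transplanted tumor received test compound or vehicle. Survival was recorded in each group, and the value is the treated-group measurement divided by that of the vehicle-treated control group.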

[1] = dose: 50.0 mg/kg/injection, schedule: Q01DX009 (ip), vehicle: saline with Tween-80
[2] = dose: 100.0 mg/kg/injection, schedule: Q01DX009 (ip), vehicle: saline with Tween-80
[3] = dose: 100.0 mg/kg/injection, schedule: Q01DX001 (ip), vehicle: Klucel (hydroxypropylcellulose) (HPC)
[4] = dose: 200.0 mg/kg/injection, schedule: Q01DX001 (ip), vehicle: Klucel (hydroxypropylcellulose) (HPC)
[5] = dose: 100.0 mg/kg/injection, schedule: Q01DX009 (ip), vehicle: saline
[6] = dose: 50.0 mg/kg/injection, schedule: Q01DX005 (ip), vehicle: saline with Tween-80
[7] = dose: 100.0 mg/kg/injection, schedule: Q01DX005 (ip), vehicle: saline with Tween-80
[8] = dose: 200.0 mg/kg/injection, schedule: Q01DX005 (ip), vehicle: saline with Tween-80

C/C(=C\Cl)CN(C)C
T/C (dose: 25.0 mg/kg/injection, schedule: Q01DX009 (ip), vehicle: saline with Tween-80): 111 % of control | T/C [1]: 111 % of control | T/C [2]: 116 % of control

CC(OS(C)(=O)=O)C(Br)C(Br)C(C)OS(C)(=O)=O (centres undefined)
T/C [3]: 168 % of control | T/C [4]: 176 % of control

CCN(CC)[Se]c1ccccc1
T/C (dose: 100.0 mg/kg/injection, schedule: Q04DX002 (ip), vehicle: saline with Tween-80): 101 % of control | T/C (dose: 200.0 mg/kg/injection, schedule: Q04DX002 (ip), vehicle: saline with Tween-80): 100 % of control | T/C (dose: 400.0 mg/kg/injection, schedule: Q04DX002 (ip), vehicle: saline with Tween-80): 98 % of control

CCCCCC(CN(C)C)C(/C=C/c1ccc(Cl)c(Cl)c1)=N\O (centres undefined)
T/C (dose: 50.0 mg/kg/injection, schedule: Q01DX009 (ip), vehicle: saline): 116 % of control | T/C [5]: 105 % of control

CCOC1CSc2ccccc2C(c2ccccc2)=N1 (centres undefined)
T/C (dose: 50.0 mg/kg/injection, schedule: Q01DX005 (ip), vehicle: Klucel + Tween-80): 107 % of control | T/C (dose: 100.0 mg/kg/injection, schedule: Q01DX005 (ip), vehicle: Klucel + Tween-80): 93 % of control | T/C (dose: 200.0 mg/kg/injection, schedule: Q01DX005 (ip), vehicle: Klucel + Tween-80): 89 % of control

N#Cc1c2ccccc2nc2ccccc12
T/C [6]: 100 % of control | T/C [7]: 96 % of control | T/C [8]: 89 % of control

COc1ccc(C(=O)Cc2nc3nnc(NC(=O)Nc4ccc(Cl)cc4)n3[nH]c2=O)cc1
T/C (dose: 60.0 mg/kg/injection, schedule: Q01DX005 (ip), vehicle: saline with Tween-80): 99 % of control | T/C (dose: 120.0 mg/kg/injection, schedule: Q01DX005 (ip), vehicle: saline with Tween-80): 99 % of control | T/C (dose: 240.0 mg/kg/injection, schedule: Q01DX005 (ip), vehicle: saline with Tween-80): 100 % of control

COc1ccc(C(C)c2cc3c(cc2OC)OCO3)cc1 (centres undefined)
T/C (dose: 12.5 mg/kg/injection, schedule: Q01DX005 (ip), vehicle: saline with Tween-80): 101 % of control and 109 % of control and 95 % of control | T/C (dose: 25.0 mg/kg/injection, schedule: Q01DX005 (ip), vehicle: saline + alcohol): 92 % of control | T/C (dose: 50.0 mg/kg/injection, schedule: Q01DX005 (ip), vehicle: saline + alcohol): 91 % of control | T/C (dose: 100.0 mg/kg/injection, schedule: Q01DX005 (ip), vehicle: saline + alcohol): 93 % of control | T/C (dose: 200.0 mg/kg/injection, schedule: Q01DX005 (ip), vehicle: saline + alcohol): 106 % of control

O=C(NCCNCCO)c1cccc(Nc2cc(O)c(O)c3ccccc23)c1
T/C [6]: 108 % of control | T/C [7]: 100 % of control | T/C [8]: 97 % of control

CC(Br)C(=O)c1ccc(OCc2ccccc2)cc1 (centres undefined)
T/C [1]: 110 % of control | T/C [2]: 124 % of control | T/C (dose: 200.0 mg/kg/injection, schedule: Q01DX009 (ip), vehicle: saline with Tween-80): 121 % of control

CNc1c(C(=O)Nc2ccccc2)c(=O)n(C)c(=O)n1C
T/C [3]: 94 % of control | T/C [4]: 92 % of control | T/C (dose: 400.0 mg/kg/injection, schedule: Q01DX001 (ip), vehicle: Klucel (hydroxypropylcellulose) (HPC)): 93 % of control

CC(C)(C)[Si](C)(C)O[C@@H]1C=C(S(=O)(=O)c2ccccc2)[C@H](N2CCSCC2)C1
T/C (dose: 12.5 mg/kg/injection, schedule: Q01DX005 (ip), vehicle: Klucel (hydroxypropylcellulose) (HPC)): 101 % of control | T/C (dose: 25.0 mg/kg/injection, schedule: Q01DX005 (ip), vehicle: Klucel (hydroxypropylcellulose) (HPC)): 97 % of control | T/C (dose: 50.0 mg/kg/injection, schedule: Q01DX005 (ip), vehicle: Klucel (hydroxypropylcellulose) (HPC)): 92 % of control

OCC1OC(n2cnc3c(Br)ncnc32)C(O)C1O (centres undefined)
T/C [6]: 91 % of control | T/C [7]: 98 % of control | T/C [8]: 91 % of control

NC(=S)c1ccc(N)cc1
T/C (dose: 100.0 mg/kg/injection, schedule: Q04DX003 (ip), vehicle: Klucel (hydroxypropylcellulose) (HPC)): 100 % of control | T/C (dose: 200.0 mg/kg/injection, schedule: Q04DX003 (ip), vehicle: Klucel (hydroxypropylcellulose) (HPC)): 106 % of control

Nc1nc2ccc(Br)cc2s1
T/C (dose: 50.0 mg/kg/injection, schedule: Q01DX009 (ip), vehicle: suspension in saline): 97 % of control | T/C [5]: 86 % of control | T/C (dose: 100.0 mg/kg/injection, schedule: Q01DX009 (ip), vehicle: suspension in saline): 102 % of control
